The text below walks through data of ChEMBL document CHEMBL2074450 (J Pharmacol Exp Ther, 2002).

The data set addresses ATP-dependent translocase ABCB1 (Homo sapiens, UniProt P08183). Kind of data set: TP_TRANSPORTER: transepithelial transport (basal to apical) in HCT-8 cells. Type of data set: functional, cell-based.

SMILES strings stand for the structures.

Sequence of ATP-dependent translocase ABCB1 (P08183 whole entry): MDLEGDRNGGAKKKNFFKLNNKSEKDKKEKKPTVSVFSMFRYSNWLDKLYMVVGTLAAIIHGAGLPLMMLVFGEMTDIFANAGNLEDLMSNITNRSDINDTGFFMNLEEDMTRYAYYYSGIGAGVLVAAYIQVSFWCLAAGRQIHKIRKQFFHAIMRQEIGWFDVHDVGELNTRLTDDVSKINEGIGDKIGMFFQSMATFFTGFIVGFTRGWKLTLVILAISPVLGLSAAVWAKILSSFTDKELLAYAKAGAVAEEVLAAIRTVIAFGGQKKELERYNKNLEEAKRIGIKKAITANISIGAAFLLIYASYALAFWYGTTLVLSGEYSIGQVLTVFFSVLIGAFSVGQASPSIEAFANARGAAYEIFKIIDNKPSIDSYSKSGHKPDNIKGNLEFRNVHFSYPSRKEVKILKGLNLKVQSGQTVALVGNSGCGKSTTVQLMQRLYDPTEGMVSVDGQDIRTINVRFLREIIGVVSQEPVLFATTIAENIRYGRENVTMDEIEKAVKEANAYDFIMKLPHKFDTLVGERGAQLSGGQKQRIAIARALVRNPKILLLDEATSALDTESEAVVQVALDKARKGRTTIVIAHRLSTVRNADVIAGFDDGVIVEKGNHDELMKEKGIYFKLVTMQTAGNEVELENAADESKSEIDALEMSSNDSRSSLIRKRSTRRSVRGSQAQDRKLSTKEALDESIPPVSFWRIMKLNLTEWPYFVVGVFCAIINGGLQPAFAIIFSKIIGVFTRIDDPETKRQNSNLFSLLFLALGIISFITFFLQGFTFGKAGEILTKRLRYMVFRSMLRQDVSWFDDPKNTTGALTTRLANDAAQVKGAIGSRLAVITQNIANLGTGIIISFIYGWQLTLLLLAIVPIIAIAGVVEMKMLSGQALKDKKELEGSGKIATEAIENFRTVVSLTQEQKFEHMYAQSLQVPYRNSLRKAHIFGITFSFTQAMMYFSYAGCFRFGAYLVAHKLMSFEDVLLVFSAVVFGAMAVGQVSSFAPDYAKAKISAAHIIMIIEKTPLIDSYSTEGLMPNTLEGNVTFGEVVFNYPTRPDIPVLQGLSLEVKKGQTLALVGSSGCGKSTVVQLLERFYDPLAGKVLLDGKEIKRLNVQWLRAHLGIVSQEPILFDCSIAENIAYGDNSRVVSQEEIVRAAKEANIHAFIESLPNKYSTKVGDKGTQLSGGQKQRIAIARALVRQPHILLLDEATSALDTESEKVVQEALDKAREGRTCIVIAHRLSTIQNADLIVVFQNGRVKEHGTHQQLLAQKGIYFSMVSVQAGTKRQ

As to `CO[C@H]1C[C@@H]2CC[C@@H](C)[C@@](O)(O2)C(=O)C(=O)N2CCCC[C@H]2C(=O)O[C@H]([C@H](C)C[C@@H]2CC[C@@H](O)[C@H](OC)C2)CC(=O)[C@H](C)/C=C(\C)[C@@H](O)[C@@H](OC)C(=O)[C@H](C)C[C@H](C)/C=C/C=C/C=C/1C` [SIROLIMUS], the Activity result is “is not a substrate [-]”.
